According to patent US5756120A, “Antibiotic formulation and use for drug resistant infections” (NeXstar Pharmaceuticals, Inc., priority 1995, dated 1998):
Several values for one entry are separate records, joined by “and”; a condition that tells them apart may be missing. Equal entries are not always repeated.

Legend:
MAC (101, type 1) [1] = experiment: MAC infected beige mice, experiment 3 (higher doses), tissue cfu; type: in vivo, Beige mice (C57B1/6bg^j /bg^j); details: 120 mg/kg i.v. three times/week for 21 days
Description: (§1) The testing of liposome encapsulated amikacin for the treatment of MAC was performed using a murine model. Beige mice (C57B1/6bg^j /bg^j) were infected with MAC (101, type 1). The mice were infected by injection of 1×10^7 Colony Forming Units (cfu) in the mouse tail vein (i.v.). Three experiments were performed. In the first experiment, 40, 80 and 120 milligrams of amikacin (liposomal and free) per kilogram of mouse body-weight was given i.v. daily for 5 days, beginning 7 days after infection. The animals were sacrificed 5 days after treatment was completed and the liver, lung and spleen tissue were plated. Quantitation of organisms in liver, spleen and lung tissue was performed. The cfu were determined by growth on Middlebrook 7h11 agar plates. Untreated and empty liposomes were used as controls.
(§2) Another experiment was carried out as above (also in two parts) except that the drug therapy was started 5 days after infection. The drug was given i.v. three times/week for 21 days. The mice were sacrificed 1-2 days after the treatment stopped. During the treatment period, a group of mice received 40 mg/Kg, 80 mg/kg, and 150 mg/kg of free amikacin and another group received 40 mg/kg, 80 mg/kg, and 160 mg/kg of liposomal amikacin. The lung tissues were not tested. Similar controls were used as above. The liposomes were prepared as described in Example 1. The average size of the liposomes was 66.5 nm or 79.6 nm (mean diameter). The concentration of the amikacin was either 15.98 mg/ml or 6.74 mg/ml. The total lipid was measure only the second part of the experiment and it was 27.0 mg/ml (drug to lipid ratio: 1:4.167).
A third experiment was carried out as in the second experiment except that the mice treated with the liposomal amikacin received 120 mg/kg, 240 mg/kg and 320 mg/kg doses and the mice treated with the free amikacin received only 120 mg/kg doses. The liposomes were prepared as in Example 2 where the average size of the liposomes were 81.8 nm (median diameter). The amikacin concentration was 32.02 mg/ml and the total lipid concentration was 91.5 mg/ml (drug to lipid ratio: 1:2.941).

[2] = 150 mg/kg; known in the art; cited from earlier work
[3] = tested on: M. tuberculosis drug susceptible strain H37RV; experiment: Intracellular activity against drug susceptible M. tuberculosis (H37RV) in human monocyte derived macrophages; type: cell-based; details: for CFU (1 × 10^3): duplicate values
MAC (101, type 1) [4] = experiment: MAC infected beige mice, experiment 1 (daily for 5 days), tissue cfu; type: in vivo, Beige mice (C57B1/6bg^j /bg^j)
Description: as §1
The liposomes were prepared as in Example 1. This experiment was performed in two identical parts. The liposomes in the first part were of an average size of 49.8 nm and the average size of the liposomes in the second part were 73.7 nm (mean diameter). The amikacin concentration was either 15.0 mg/ml or 13.21 mg/ml and the total lipid concentration was either 121 mg/ml or 55.7 mg/ml respectively (drug to lipid ratios: 0.123, 0.24). Free drug for all experiments was prepared in the same buffer that the liposomal formulations were contained in.

[5] = tested on: Mycobacterium tuberculosis; details: background statement; cited from earlier work
MAC (101, type 1) [6] = experiment: MAC infected beige mice, experiment 2 (three times/week for 21 days), tissue cfu; type: in vivo, Beige mice (C57B1/6bg^j /bg^j)
Description: as §1
as §2, with “During the treatment period, a group of mice received 40 mg/Kg, 80 mg/kg, and 150 mg/kg of free amikacin and another group received 40 mg/kg, 80 mg/kg, and 160 mg/kg of liposomal amikacin.” left out

[7] = type: in vivo, mouse (C57B1/6); details: 100 mg/kg i.v.; 6 hours
Description: Amidacin content was measured in mouse (C57B1/6, females 2-3 months old) plasma after injection (i.v.) of free amikacin or liposomal amikacin (100 mg/kg). Liposomal amikacin was prepared as described in Example 2. Blood samples were obtained at various time intervals. The samples were collected by removing 100 microliters of blood, retroorbitally, from nonanesthetized mice. The samples were collected in heparinized capillary pipets which were plugged with modeling clay. The samples were centrifuged at 3250 rpm (20 cm rotor) for 10 minutes. The samples were analyzed using a radioimmunoassay (Diagnostic Products). The liposomal amikacin formulation contained liposomes with an average size of 43.6 nm (median diameter). The amikacin concentration was 10.09 mg/ml and the total lipid concentration was 56.8 mg/ml (drug to lipid ratio 1:5.556).

Pseudomonas aeruginosa = experiment: Efficacy and toxicity in Pseudomonas infected mice (mortality); type: in vivo, CF-1 mice; details: two doses
Description: The efficacy and toxicity of liposomal amikacin in Pseudomonas infected mice was tested. CF-1 mice were used (females, 6-8 weeks old). The mice were obtained from Jackson Labs. A clinical isolate of Pseudomonas aeruginosa was obtained on a Mueller Hinton/MacConkey blood agar plate. The organisms were transferred to a Mueller Hinton plate and grown for 24 hours. Colonies were transferred to saline and grown for 48 hours. The samples were frozen in saline containing 15% fetal calf serum at 1×10^8 organisms/ml (MacFarland Standard). The colonies were stored at -70° C. The colonies were thawed and grown in a Mueller Hinton plate for 24 hours. The bacteria were adjusted to 8×10^6 organisms/ml in saline containing talc (62.5 mg/ml) and 1 ml was injected intraperitoneal. A culture of inoculum on MH agar for 24 hours determined that approximately 7×10^6 cfu were delivered per mouse. Liposomal amikacin and empty liposomes were prepared as set out in Example 2. […] The lipid concentration was 95.31 mg/ml and the amikacin concentration was 23.54 mg/ml (0.25 drug/lipid ratio). The pH of the solution containing the formulation was 7.31. […] The concentration of the free amikacin solution was 23.54 mg/ml. The pH of the solution containing the liposomes was 7.33.
Mice were treated with 40 mg/kg (drug per body-weight), 80 mg/kg, 120 mg/kg and 240 mg/kg of liposomal amikacin. Mice were also treated with 40 mg/kg, 80 mg/kg, and 120 mg/kg of free amikacin. The drugs were administered intravenously in the caudal vein. Two doses were given; one at four hours after infection and one at twenty-four hours after infection.

[8] = 120 mg/kg i.v. daily for 5 days
[9] = 40 mg/kg i.v. three times/week for 21 days
[10] = 80 mg/kg i.v. three times/week for 21 days
[11] = 120 mg/kg i.v. three times/week for 21 days

SMILES: NCC[C@H](O)C(=O)N[C@@H]1C[C@H](N)[C@@H](O[C@H]2O[C@H](CN)[C@@H](O)[C@H](O)[C@H]2O)[C@H](O)[C@H]1O[C@H]1O[C@H](CO)[C@@H](O)[C@H](N)[C@H]1O [amikacin]
- Liver cfu/g (MAC (101, type 1) [1]): 6.10 × 10^7 cfu/g
- Liver log cfu/g (MAC (101, type 1) [1]): 7.78 log cfu/g
- Spleen cfu/g (MAC (101, type 1) [1]): 2.13 × 10^8 cfu/g
- Spleen log cfu/g (MAC (101, type 1) [1]): 8.33 log cfu/g
- lethality in mice [2]: will kill many of the mice injected
- inhibition or killing of drug susceptible M. tuberculosis ([3]; 1 μg/ml): inhibited the growth of the bacteria
- Avg. log CFU ([3]; 1 μg/ml, day 4): 4.7 log CFU
- CFU (1 × 10^3) ([3]; 1 μg/ml, day 4): 50 1 × 10^3 CFU and 60 1 × 10^3 CFU
- Avg. log CFU ([3]; 1 μg/ml, day 7): 5.9 log CFU
- CFU (1 × 10^3) ([3]; 1 μg/ml, day 7): 900 1 × 10^3 CFU and 800 1 × 10^3 CFU
- inhibition or killing of drug susceptible M. tuberculosis ([3]; 2 μg/ml): inhibition
- Avg. log CFU ([3]; 2 μg/ml, day 4): 4.3 log CFU
- CFU (1 × 10^3) ([3]; 2 μg/ml, day 4): 20 1 × 10^3 CFU
- Avg. log CFU ([3]; 2 μg/ml, day 7): 4.7 log CFU
- CFU (1 × 10^3) ([3]; 2 μg/ml, day 7): 40 1 × 10^3 CFU and 50 1 × 10^3 CFU
- Avg. log CFU ([3]; 4 μg/ml, day 4): 3.7 log CFU
- inhibition or killing of drug susceptible M. tuberculosis ([3]; 4 μg/ml, day 4): obtained killing at day 4
- CFU (1 × 10^3) ([3]; 4 μg/ml, day 4): 4 1 × 10^3 CFU
- Avg. log CFU ([3]; 4 μg/ml, day 7): 3.4 log CFU
- CFU (1 × 10^3) ([3]; 4 μg/ml, day 7): 1.5 1 × 10^3 CFU and 3 1 × 10^3 CFU
- Liver cfu/g (MAC (101, type 1) [4]; 40 mg/kg i.v. daily for 5 days): 1.41 × 10^8 cfu/g
- Liver log cfu/g (MAC (101, type 1) [4]; 40 mg/kg i.v. daily for 5 days): 8.15 log cfu/g
- Spleen cfu/g (MAC (101, type 1) [4]; 40 mg/kg i.v. daily for 5 days): 4.08 × 10^8 cfu/g
- Spleen log cfu/g (MAC (101, type 1) [4]; 40 mg/kg i.v. daily for 5 days): 8.61 log cfu/g
- lung cfu/gram (MAC (101, type 1) [4]; 40 mg/kg i.v. daily for 5 days): 1.44×10^6 cfu/gram
- lung log (MAC (101, type 1) [4]; 40 mg/kg i.v. daily for 5 days): 6.16 log
- Liver cfu/g (MAC (101, type 1) [4]; 80 mg/kg i.v. daily for 5 days): 7.79 × 10^7 cfu/g
- Liver log cfu/g (MAC (101, type 1) [4]; 80 mg/kg i.v. daily for 5 days): 7.89 log cfu/g
- Spleen cfu/g (MAC (101, type 1) [4]; 80 mg/kg i.v. daily for 5 days): 4.82 × 10^8 cfu/g
- Spleen log cfu/g (MAC (101, type 1) [4]; 80 mg/kg i.v. daily for 5 days): 8.68 log cfu/g
- lung cfu/gram (MAC (101, type 1) [4]; 80 mg/kg i.v. daily for 5 days): 1.29×10^6 cfu/gram
- lung log (MAC (101, type 1) [4]; 80 mg/kg i.v. daily for 5 days): 6.11 log
- Liver cfu/g (MAC (101, type 1) [4]; [8]): 5.65 × 10^7 cfu/g
- Liver log cfu/g (MAC (101, type 1) [4]; [8]): 7.75 log cfu/g
- Spleen cfu/g (MAC (101, type 1) [4]; [8]): 3.46 × 10^8 cfu/g
- Spleen log cfu/g (MAC (101, type 1) [4]; [8]): 8.54 log cfu/g
- lung cfu/gram (MAC (101, type 1) [4]; [8]): 9.94×10^5 cfu/gram
- lung log (MAC (101, type 1) [4]; [8]): 6.00 log
- effectiveness against Mycobacterium tuberculosis [5]: effective
- Liver cfu/g (MAC (101, type 1) [6]; [9]): 1.09 × 10^8 cfu/g
- Liver log cfu (MAC (101, type 1) [6]; [9]): 8.04 log cfu
- Spleen cfu/g (MAC (101, type 1) [6]; [9]): 5.76 × 10^8 cfu/g
- Spleen log cfu (MAC (101, type 1) [6]; [9]): 8.76 log cfu
- Liver cfu/g (MAC (101, type 1) [6]; [10]): 3.67 × 10^7 cfu/g
- Liver log cfu (MAC (101, type 1) [6]; [10]): 7.56 log cfu
- Spleen cfu/g (MAC (101, type 1) [6]; [10]): 2.02 × 10^8 cfu/g
- Spleen log cfu (MAC (101, type 1) [6]; [10]): 8.31 log cfu
- Liver cfu/g (MAC (101, type 1) [6]; [11]): 3.15 × 10^7 cfu/g
- Liver log cfu (MAC (101, type 1) [6]; [11]): 7.50 log cfu
- Spleen cfu/g (MAC (101, type 1) [6]; [11]): 1.48 × 10^8 cfu/g
- Spleen log cfu (MAC (101, type 1) [6]; [11]): 8.17 log cfu
- Average Concentration (plasma amikacin) [7]: none detected
- Mortality % (Pseudomonas aeruginosa; 40 mg/kg i.v.): 25%
- Mortality (Pseudomonas aeruginosa; 40 mg/kg i.v., 24 hours post infection): 1/4
- Mortality (Pseudomonas aeruginosa; 40 mg/kg i.v., 30 hours post infection): 1/4
- Mortality (Pseudomonas aeruginosa; 40 mg/kg i.v., 48 hours post infection): 1/4
- Mortality (Pseudomonas aeruginosa; 40 mg/kg i.v., 72 hours post infection): 1/4
- Mortality % (Pseudomonas aeruginosa; 80 mg/kg i.v.): 0%
- Mortality (Pseudomonas aeruginosa; 80 mg/kg i.v., 24 hours post infection): 0/6
- Mortality (Pseudomonas aeruginosa; 80 mg/kg i.v., 30 hours post infection): 0/6
- Mortality (Pseudomonas aeruginosa; 80 mg/kg i.v., 48 hours post infection): 0/6
- Mortality (Pseudomonas aeruginosa; 80 mg/kg i.v., 72 hours post infection): 0/6
- Mortality % (Pseudomonas aeruginosa; 120 mg/kg i.v.): 0%
- Mortality (Pseudomonas aeruginosa; 120 mg/kg i.v., 24 hours post infection): 0/6
- Mortality (Pseudomonas aeruginosa; 120 mg/kg i.v., 30 hours post infection): 0/6
- Mortality (Pseudomonas aeruginosa; 120 mg/kg i.v., 48 hours post infection): 0/6
- Mortality (Pseudomonas aeruginosa; 120 mg/kg i.v., 72 hours post infection): 0/6
